This is an account of results in publication PMC12155888, “Design, Synthesis, and Antitumor Biological Evaluation of Galaxamide and Its Analogs” (Molecules, 2025).

≈ marks a conversion by molar mass, not a printed value. Where a SMILES comes first, the peptide text is derived from it. [ ]: non-standard residue; d: D form. dNMeL = CN[C@H](CC(C)C)C(=O)O

One test relates to 293T. Type of test: cell-based, human. The conditions noted are these: normal human embryonic kidney cells 293T, 48 h, CCK-8; NA = not determined due to low inhibitory activity; read-out: IC50 293T. From the text:
(§1) Since the antitumor activity of natural galaxamide is good, we are interested in the antitumor potential of the obtained new analogs. To examine the anticancer activities of galaxamide and its analogs, two different human cancer cell lines, human non-small-cell lung cancer cells (A549) and human chronic myelogenous leukemia (K562), and one normal human cell line, human immortal embryonic kidney cells (293T), were selected for the in vitro cell models. […] The synthetic galaxamide (Gala01) was also tested as the standard. […] It was also found […] the best selectivity and highest safety and is thus worthy of further development for anticancer drugs for K562. A549, K562, and 293T cells were purchased from the Cell Resource Center of the Institute of Basic Medicine, Chinese Academy of Medical Sciences. Both A549 cells and K562 cells were cultured in RPMI (full name: Roswell Park Memorial Institute) 1640 medium containing 10% FBS (full name: fetal bovine serum, product number: C04001-500, Vivacell, Shanghai, China) and 1% p/s (full name: penicillin-streptomycin, product number: 15140122, Gbico, Waltham, MA, USA) for culture. The 293T cells were all cultured in DMEM (full name: Dulbecco's Modified Eagle Medium; cat. no.: C3113-0500, Vivacell, ShanghaiChina; containing 10% FBS and 1% p/s) for cultivation. […] Multiple types of cells were seeded into 96-well plates and treated with different concentrations of […]26 for 48 h after they returned to normal. Then, the relative activity of the cells was detected according to the instructions of the CCK-8 kit (item number: MA0218, Meilunbio, Dalian, China) and analyzed and calculated using GraphPad Prism 8.0.1 software.

In a further test the test system is A549. The format is cell-based, human. The conditions noted are these: human non-small-cell lung cancer cells A549, 48 h, CCK-8; unit given in the text, not in Table 2; read-out: IC50 A549.
Description: as §1

The test system of a further test is K562. Type of test: cell-based, human. Particulars: human chronic myelogenous leukemia K562, 48 h, CCK-8; unit given in the text, not in Table 2; read-out: IC50 K562. As to the method: To examine the anticancer activities of galaxamide and its analogs, two different human cancer cell lines, human non-small-cell lung cancer cells (A549) and human chronic myelogenous leukemia (K562), and one normal human cell line, human immortal embryonic kidney cells (293T), were selected for the in vitro cell models. […] The synthetic galaxamide (Gala01) was also tested as the standard. […] A549, K562, and 293T cells were purchased from the Cell Resource Center of the Institute of Basic Medicine, Chinese Academy of Medical Sciences. Both A549 cells and K562 cells were cultured in RPMI (full name: Roswell Park Memorial Institute) 1640 medium containing 10% FBS (full name: fetal bovine serum, product number: C04001-500, Vivacell, Shanghai, China) and 1% p/s (full name: penicillin-streptomycin, product number: 15140122, Gbico, Waltham, MA, USA) for culture. The 293T cells were all cultured in DMEM (full name: Dulbecco's Modified Eagle Medium; cat. no.: C3113-0500, Vivacell, ShanghaiChina; containing 10% FBS and 1% p/s) for cultivation. […] Multiple types of cells were seeded into 96-well plates and treated with different concentrations of […]26 for 48 h after they returned to normal. Then, the relative activity of the cells was detected according to the instructions of the CCK-8 kit (item number: MA0218, Meilunbio, Dalian, China) and analyzed and calculated using GraphPad Prism 8.0.1 software.

The subject of test [1] is human renal cell carcinoma GRC-1. Further details: method as in PMID 18816120. The conditions noted are these: human renal cell carcinoma GRC-1 cell line; cited from earlier work.
In test [2] the test system is human hepatocellular carcinoma Hep G2. Further details: method as in PMID 18816120. The conditions noted are these: human hepatocellular carcinoma Hep G2 cell line; cited from earlier work.

The IC50 is the concentration needed to halve the response being measured. Regarding `CC(C)C[C@@H]1C(=O)N[C@H](CC(C)C)C(=O)N[C@H](CC(C)C)C(=O)N(C)[C@H](CC(C)C)C(=O)N[C@H](CC(C)C)C(=O)N1C` [Gala01, Cyclo(Me-D-Leu-D-Leu-D-Leu-Me-D-Leu-D-Leu)] (cyclo([dL][dL][dNMeL][dL][dNMeL])), the figures for the IC50 with 293T, in the test on A549 and with K562 were 19.9 µM, 14 µM and over 80 µM, respectively. Further, the “IC50 GRC-1” value in test [1] was 4.26 µg/mL (≈ 7.17 µM). In addition, the “IC50 Hep G2” value in test [2] is reported as 4.63 µg/mL (≈ 7.8 µM).
